Reference: patent US12539292B2, “BRM targeting compounds and associated methods of use” (Arvinas Operations, Inc., priority 2018, dated 2026)
Where two headings read alike, the source gives them in different places.

Target: T1, BRM (Homo sapiens, UniProt P51531)
T1 construct: In-Cell Western Screen of BRM Degradation in SW1573 Cells; endogenous in cells; host or cells: SW1573
Test: In-cell Western screen of BRM degradation in SW1573 cells (Dmax and DC50)
Assay type: cell-based
How it was run: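 Near-infrared imaging on a LI-COR Odyssey (800 and 680 nm channels) quantifies BRM remaining in fixed SW1573 cells. Cells are dosed for 18-20 h at 0.1% final DMSO, and degradation is expressed as Dmax and DC50.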

[1] = BRM degradation, SW1573 cells, read-out: DC50
[2] = target protein degradation, read-out: BRM DC50
[3] = BRM degradation, SW1573 cells, when tested at the top concentration of between 0.3 and 10 μM, read-out: Dmax (%) (% degraded)
[4] = SW1573, % degraded, when tested at the top concentration of between 0.3 and 10 μM, read-out: BRM Dmax (%)
[5] = BRM degradation, SW1573 cells, tested at the top concentration of between 0.3 and 10 μM, read-out: Dmax (%) (% degraded)

T1 sequence (P51531 whole entry): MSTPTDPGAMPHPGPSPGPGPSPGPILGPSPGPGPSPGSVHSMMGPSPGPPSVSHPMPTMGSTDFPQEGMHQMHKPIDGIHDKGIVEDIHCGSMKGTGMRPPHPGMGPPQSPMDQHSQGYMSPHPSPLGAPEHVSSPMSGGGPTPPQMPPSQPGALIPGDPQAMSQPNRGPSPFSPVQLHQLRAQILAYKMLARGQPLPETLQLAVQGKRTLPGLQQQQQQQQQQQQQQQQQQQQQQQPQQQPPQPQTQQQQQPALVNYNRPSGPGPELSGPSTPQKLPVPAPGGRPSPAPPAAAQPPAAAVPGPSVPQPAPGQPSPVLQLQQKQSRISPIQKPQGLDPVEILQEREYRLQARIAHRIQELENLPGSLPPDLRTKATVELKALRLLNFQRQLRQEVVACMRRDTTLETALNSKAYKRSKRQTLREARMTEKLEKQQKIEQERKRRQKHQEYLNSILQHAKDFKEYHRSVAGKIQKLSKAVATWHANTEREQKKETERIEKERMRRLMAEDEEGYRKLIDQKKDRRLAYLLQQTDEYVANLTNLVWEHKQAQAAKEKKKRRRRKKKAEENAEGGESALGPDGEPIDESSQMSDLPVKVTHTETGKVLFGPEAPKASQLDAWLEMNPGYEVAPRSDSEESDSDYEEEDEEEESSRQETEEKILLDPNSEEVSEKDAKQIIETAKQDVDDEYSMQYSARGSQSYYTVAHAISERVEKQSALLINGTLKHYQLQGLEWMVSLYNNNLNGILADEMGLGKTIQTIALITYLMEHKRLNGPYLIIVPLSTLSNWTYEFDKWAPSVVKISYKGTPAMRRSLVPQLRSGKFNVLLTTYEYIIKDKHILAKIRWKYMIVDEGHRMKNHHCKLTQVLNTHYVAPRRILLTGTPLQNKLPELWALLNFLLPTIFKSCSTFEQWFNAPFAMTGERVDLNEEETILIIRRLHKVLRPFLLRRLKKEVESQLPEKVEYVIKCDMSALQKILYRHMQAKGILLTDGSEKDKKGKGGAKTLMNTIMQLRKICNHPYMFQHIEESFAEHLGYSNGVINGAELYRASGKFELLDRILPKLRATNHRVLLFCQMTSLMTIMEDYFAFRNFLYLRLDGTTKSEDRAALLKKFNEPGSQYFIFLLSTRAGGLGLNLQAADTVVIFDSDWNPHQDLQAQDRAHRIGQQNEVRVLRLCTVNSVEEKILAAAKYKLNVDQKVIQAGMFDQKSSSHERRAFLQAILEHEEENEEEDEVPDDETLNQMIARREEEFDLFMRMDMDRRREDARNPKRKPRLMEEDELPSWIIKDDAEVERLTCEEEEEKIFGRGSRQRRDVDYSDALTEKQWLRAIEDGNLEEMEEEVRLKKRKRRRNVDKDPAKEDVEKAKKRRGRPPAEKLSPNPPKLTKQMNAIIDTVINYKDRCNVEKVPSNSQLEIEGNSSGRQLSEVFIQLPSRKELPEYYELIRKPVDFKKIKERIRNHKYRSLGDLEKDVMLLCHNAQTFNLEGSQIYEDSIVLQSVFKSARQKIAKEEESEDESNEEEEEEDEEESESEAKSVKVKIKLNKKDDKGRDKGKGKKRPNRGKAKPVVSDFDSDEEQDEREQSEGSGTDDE

Q: How did the DC50 [1] turn out when `Cc1ncsc1-c1ccc([C@H](C)NC(=O)[C@@H]2C[C@@H](O)CN2C(=O)[C@@H](c2cc(OCCN3CC[C@H](O[C@H]4C[C@H](Oc5cc(N6C7CCC6CN(c6cc(-c8ccccc8O)nnc6N)C7)ccn5)C4)C[C@@H]3C)no2)C(C)C)cc1` (single isomer, unassigned) [compound 636] was run?
A: < 2.5 nM

Q: And the Dmax (BRM degradation, SW1573 cells, read-out: Dmax (% degraded))?
A: > 75%

Q: `Cc1ncsc1-c1ccc([C@H](C)NC(=O)[C@@H]2C[C@@H](O)CN2C(=O)[C@H](c2cc(OCC#Cc3ncc(O[C@H]4C[C@H](Oc5cc(N6C7CCC6CN(c6cc(-c8ccccc8O)nnc6N)C7)ccn5)C4)cn3)no2)C(C)C)cn1` [compound 399, (2S,4R)-1-((2S)-2-(3-((3-(5-((1r,3S)-3-((4-(3-(3-amino-6-(2-hydroxyphenyl)pyridazin-4-yl)-3,8-diazabicyclo[3.2.1]octan-8-yl)pyridin-2-yl)oxy)cyclobutoxy)pyrimidin-2-yl)prop-2-yn-1-yl)oxy)isoxazol-5-yl)-3-methylbutanoyl)-4-hydroxy-N-((S)-1-(6-(4-methylthiazol-5-yl)pyridin-3-yl)ethyl)pyrrolidine-2-carboxamide] was tested. Which DC50 [2] did it give?
A: > 30 nM

Q: With `Cc1ncsc1-c1ccc([C@H](C)NC(=O)[C@@H]2C[C@@H](O)CN2C(=O)[C@@H](c2cc(OCCN3CCN(Cc4ccc(C(C)n5cc(-c6cc(-c7ccccc7O)nnc6N)cn5)cc4)CC3)no2)C(C)C)cc1` (stereo partly drawn) [compound 83, (2S,4R)-1-((2R)-2-(3-(2-(4-(4-(1-(4-(3-amino-6-(2-hydroxyphenyl)pyridazin-4-yl)-1H-pyrazol-1-yl)ethyl)benzyl)piperazin-1-yl)ethoxy)isoxazol-5-yl)-3-methylbutanoyl)-4-hydroxy-N-((S)-1-(4-(4-methylthiazol-5-yl)phenyl)ethyl)pyrrolidine-2-carboxamide] as the molecule, how does the DC50 [1] read?
A: < 2.5 nM

Q: And the Dmax [3]?
A: > 75%

Q: `Cc1ncsc1-c1ccc(CNC(=O)[C@@H]2C[C@@H](O)CN2C(=O)[C@@H](c2cc(OCCOCCOCCOCCOc3cc(N4C5CCC4CN(c4cc(-c6ccccc6O)nnc4N)C5)ccn3)no2)C(C)C)cc1` [compound 30, (2S,4R)-1-[(2R)-2-(3-[[1-(4-[3-[3-amino-6-(2-hydroxyphenyl)pyridazin-4-yl]-3,8-diazabicyclo[3.2.1]octan-8-yl]pyridin-2-yl)-1,4,7,10-tetraoxadodecan-12-yl]oxy]-1,2-oxazol-5-yl)-3-methylbutanoyl]-4-hydroxy-N-[[4-(4-methyl-1,3-thiazol-5-yl)phenyl]methyl]pyrrolidine-2-carboxamide] was tested. Which DC50 [1] did it give?
A: < 2.5 nM

Q: What about the Dmax [3] of the same molecule?
A: > 75%

Q: Which results are given for `CC(C)[C@H](C(=O)N1C[C@H](O)C[C@H]1C(=O)N[C@@H](C)c1ccc(C#N)cc1)c1cc(OCC#Cc2ncc(O[C@H]3C[C@H](Oc4cc(N5C6CCC5CN(c5cc(-c7ccccc7O)nnc5N)C6)ccn4)C3)cn2)no1` [compound 386, (2S,4R)-1-((2S)-2-(3-((3-(5-((1r,3S)-3-((4-(3-(3-amino-6-(2-hydroxyphenyl)pyridazin-4-yl)-3,8-diazabicyclo[3.2.1]octan-8-yl)pyridin-2-yl)oxy)cyclobutoxy)pyrimidin-2-yl)prop-2-yn-1-yl)oxy)isoxazol-5-yl)-3-methylbutanoyl)-N-((S)-1-(4-cyanophenyl)ethyl)-4-hydroxypyrrolidine-2-carboxamide]?
A: Dmax [4]: > 75%; DC50 [2]: 10 to 30 nM

Q: What does the source list for `Cc1ncsc1-c1ccc(CNC(=O)[C@@H]2C[C@@H](O)CN2C(=O)[C@@H](c2cc(OCCN3CCN(CCOc4cc(N5C6CCC5CN(c5cc(-c7ccccc7O)nnc5N)C6)ccn4)C[C@@H]3C)no2)C(C)C)cc1` [compound 210, (2S,4R)-1-((2R)-2-(3-(2-((2S)-4-(2-((4-(3-(3-amino-6-(2-hydroxyphenyl)pyridazin-4-yl)-3,8-diazabicyclo[3.2.1]octan-8-yl)pyridin-2-yl)oxy)ethyl)-2-methylpiperazin-1-yl)ethoxy)isoxazol-5-yl)-3-methylbutanoyl)-4-hydroxy-N-(4-(4-methylthiazol-5-yl)benzyl)pyrrolidine-2-carboxamide]?
A: DC50 [1]: < 2.5 nM; Dmax [5]: > 75%

Q: For `Cc1ncoc1-c1ccc([C@H](C)NC(=O)[C@@H]2C[C@@H](O)CN2C(=O)[C@@H](c2cc(OCCN3CCC(O[C@H]4C[C@H](Oc5cc(N6C7CCC6CN(c6cc(-c8ccccc8O)nnc6N)C7)ccn5)C4)CC3)no2)C(C)C)cc1` [compound 213, (2S,4R)-1-((2R)-2-(3-(2-(4-((1r,3R)-3-((4-(3-(3-amino-6-(2-hydroxyphenyl)pyridazin-4-yl)-3,8-diazabicyclo[3.2.1]octan-8-yl)pyridin-2-yl)oxy)cyclobutoxy)piperidin-1-yl)ethoxy)isoxazol-5-yl)-3-methylbutanoyl)-4-hydroxy-N-((S)-1-(4-(4-methyloxazol-5-yl)phenyl)ethyl)pyrrolidine-2-carboxamide], which DC50 [1] is on record?
A: < 2.5 nM

Q: And the Dmax [5]?
A: > 75%

Q: `CC(C)C(C(=O)N1C[C@H](O)C[C@H]1C(=O)N[C@@H](C)c1ccc(-c2scnc2CO)cc1)c1cc(OCCN2CCN(CCOc3cc(N4C5CCC4CN(c4cc(-c6ccccc6O)nnc4N)C5)ccn3)CC2)no1` (stereo partly drawn) [compound 168, (2S,4R)-1-(2-(3-(2-(4-(2-((4-(3-(3-amino-6-(2-hydroxyphenyl)pyridazin-4-yl)-3,8-diazabicyclo[3.2.1]octan-8-yl)pyridin-2-yl)oxy)ethyl)piperazin-1-yl)ethoxy)isoxazol-5-yl)-3-methylbutanoyl)-4-hydroxy-N-((S)-1-(4-(4-(hydroxymethyl)thiazol-5-yl)phenyl)ethyl)pyrrolidine-2-carboxamide] was tested. Which DC50 [1] did it give?
A: < 2.5 nM

Q: What about the Dmax [5] of the same molecule?
A: > 75%

Q: `Cc1cc([C@@H](C(=O)N2C[C@H](O)C[C@H]2C(=O)N[C@@H](C)c2ccc(-c3scnc3C)cc2)[C@H](C)COCCCn2cc(-c3cc(-c4ccccc4O)nnc3N)cn2)on1` [compound 559, (2S,4R)-1-((2S,3S)-4-(3-(4-(3-amino-6-(2-hydroxyphenyl)pyridazin-4-yl)-1H-pyrazol-1-yl)propoxy)-3-methyl-2-(3-methylisoxazol-5-yl)butanoyl)-4-hydroxy-N-((S)-1-(4-(4-methylthiazol-5-yl)phenyl)ethyl)pyrrolidine-2-carboxamide] was tested. Which DC50 (BRM degradation, SW1573 cells, Table 2D, read-out: *DC50) did it give?
A: > 30 nM

Q: With `Cc1ncsc1-c1ccc([C@H](C)NC(=O)[C@@H]2C[C@@H](O)CN2C(=O)[C@H](c2cc(OCC(=O)N3CCC(O[C@H]4C[C@H](Oc5cc(N6C7CCC6CN(c6cc(-c8ccccc8O)nnc6N)C7)ccn5)C4)CC3)no2)C(C)C)cn1` [compound 271, (2S,4R)-1-((2S)-2-(3-(2-(4-((1r,3S)-3-((4-(3-(3-amino-6-(2-hydroxyphenyl)pyridazin-4-yl)-3,8-diazabicyclo[3.2.1]octan-8-yl)pyridin-2-yl)oxy)cyclobutoxy)piperidin-1-yl)-2-oxoethoxy)isoxazol-5-yl)-3-methylbutanoyl)-4-hydroxy-N-((S)-1-(6-(4-methylthiazol-5-yl)pyridin-3-yl)ethyl)pyrrolidine-2-carboxamide] as the molecule, how does the DC50 [1] read?
A: > 30 nM

Q: What does the source list for `Cc1ncsc1-c1ccc(CNC(=O)[C@@H]2C[C@@H](O)CN2C(=O)[C@@H](NC(=O)COCCOCCOCCOCCCc2cc(N3C4CCC3CN(c3cc(-c5ccccc5O)nnc3N)C4)ccn2)C(C)(C)C)cc1` [compound 53, (2S,4R)-1-((S)-18-(4-(3-(3-amino-6-(2-hydroxyphenyl)pyridazin-4-yl)-3,8-diaza-bicyclo[3.2.1]octan-8-yl)pyridin-2-yl)-2-tert-butyl-4-oxo-6,9,12,15-tetraoxa-3-azaoctadecan-1-oyl)-4-hydroxy-N-(4-(4-methylthiazol-5-yl)benzyl)pyrrolidine-2-carboxamide]?
A: DC50 [1]: 2.5 to 10 nM; Dmax [3]: > 75%

Q: For `COc1cc(-c2scnc2C)ccc1CNC(=O)[C@@H]1C[C@@H](O)CN1C(=O)[C@H](c1cc(OCCN2CCC(O[C@H]3C[C@H](Oc4cc(N5C6CCC5CN(c5cc(-c7ccccc7O)nnc5N)C6)ccn4)C3)CC2)no1)C(C)C` [compound 214, (2S,4R)-1-((2S)-2-(3-(2-(4-((1r,3S)-3-((4-(3-(3-amino-6-(2-hydroxyphenyl)pyridazin-4-yl)-3,8-diazabicyclo[3.2.1]octan-8-yl)pyridin-2-yl)oxy)cyclobutoxy)piperidin-1-yl)ethoxy)isoxazol-5-yl)-3-methylbutanoyl)-4-hydroxy-N-(2-methoxy-4-(4-methylthiazol-5-yl)benzyl)pyrrolidine-2-carboxamide], which DC50 [1] is on record?
A: > 30 nM

Q: `Cc1cnc(C)n1-c1ccc([C@H](C)NC(=O)[C@@H]2C[C@@H](O)CN2C(=O)[C@@H](c2cc(OCCN3CCC(O[C@H]4C[C@H](Oc5cc(N6C7CCC6CN(c6cc(-c8ccccc8O)nnc6N)C7)ccn5)C4)CC3)no2)C(C)C)cc1` [compound 376, (2S,4R)-1-((2R)-2-(3-(2-(4-((1r,3R)-3-((4-(3-(3-amino-6-(2-hydroxyphenyl)pyridazin-4-yl)-3,8-diazabicyclo[3.2.1]octan-8-yl)pyridin-2-yl)oxy)cyclobutoxy)piperidin-1-yl)ethoxy)isoxazol-5-yl)-3-methylbutanoyl)-N-((S)-1-(4-(2,5-dimethyl-1H-imidazol-1-yl)phenyl)ethyl)-4-hydroxypyrrolidine-2-carboxamide] was tested. Which Dmax [4] did it give?
A: > 75%

Q: What about the DC50 [2] of the same molecule?
A: 10 to 30 nM

Q: `Cc1ncsc1-c1ccc([C@H](C)NC(=O)[C@@H]2C[C@@H](O)CN2C(=O)[C@H](c2cc(N3CCN(CC#Cc4ncc(O[C@H]5C[C@H](Oc6cc(N7C8CCC7CN(c7cc(-c9ccccc9O)nnc7N)C8)ccn6)C5)cn4)CC3)no2)C(C)C)cc1` [compound 521, (2S,4R)-1-((2S)-2-(3-(4-(3-(5-((1r,3r)-3-((4-(3-(3-amino-6-(2-hydroxyphenyl)pyridazin-4-yl)-3,8-diazabicyclo[3.2.1]octan-8-yl)pyridin-2-yl)oxy)cyclobutoxy)pyrimidin-2-yl)prop-2-yn-1-yl)piperazin-1-yl)isoxazol-5-yl)-3-methylbutanoyl)-4-hydroxy-N-((S)-1-(4-(4-methylthiazol-5-yl)phenyl)ethyl)pyrrolidine-2-carboxamide] was tested. Which DC50 (BRM degradation, read-out: BRM DC50) did it give?
A: > 30 nM
